Values quoted from earlier work, collected in patent publication US10828414B2, “Magnetic filtration devices and methods related thereto” (The Regents of the University of California, priority 2015, dated 2020).

Conditions: IAC, regardless of infused dose

COc1cccc2c1C(=O)c1c(O)c3c(c(O)c1C2=O)C[C@@](O)(C(=O)CO)C[C@@H]3O[C@H]1C[C@H](N)[C@H](O)[C@H](C)O1 [Dox, doxorubicin]
first pass hepatic clearance: 50-70%
